PubChem BioAssay (NCI)
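Method: 48-hour compound exposure of cells in 96-well plates, five concentrations, linear interpolation of endpoints. GI50 marks 50% less growth. TGI denotes the concentration required for complete inhibition of growth.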

Experiments:
Assay in all cases: inhibition of tumour cell growth, NCI panel, 48 h
786-0 renal = tested on: 786-0 renal
A498 renal = tested on: A498 renal
A549 NSCLC = tested on: A549 NSCLC
BT-549 breast = tested on: BT-549 breast
CAKI-1 renal = tested on: CAKI-1 renal
CCRF-CEM leukemia = tested on: CCRF-CEM leukemia
COLO 205 colon = tested on: COLO 205 colon
DU-145 prostate = tested on: DU-145 prostate
EKVX NSCLC = tested on: EKVX NSCLC
HCC-2998 colon = tested on: HCC-2998 colon
HCT-116 colon = tested on: HCT-116 colon
HCT-15 colon = tested on: HCT-15 colon
HOP-62 NSCLC = tested on: HOP-62 NSCLC
HOP-92 NSCLC = tested on: HOP-92 NSCLC
HS 578T breast = tested on: HS 578T breast
HT29 colon = tested on: HT29 colon
IGROV1 ovarian = tested on: IGROV1 ovarian
K-562 leukemia = tested on: K-562 leukemia
KM12 colon = tested on: KM12 colon
LOX IMVI melanoma = tested on: LOX IMVI melanoma
M14 melanoma = tested on: M14 melanoma
MALME-3M melanoma = tested on: MALME-3M melanoma
MCF7 breast = tested on: MCF7 breast
MDA-MB-231 breast = tested on: MDA-MB-231 breast
MDA-MB-435 = tested on: MDA-MB-435
MOLT-4 leukemia = tested on: MOLT-4 leukemia
NCI-H226 lung = tested on: NCI-H226 lung
NCI-H23 lung = tested on: NCI-H23 lung
NCI-H460 lung = tested on: NCI-H460 lung
NCI-H522 lung = tested on: NCI-H522 lung
NCI/ADR-RES ovarian = tested on: NCI/ADR-RES ovarian
OVCAR-4 ovarian = tested on: OVCAR-4 ovarian
OVCAR-5 ovarian = tested on: OVCAR-5 ovarian
OVCAR-8 ovarian = tested on: OVCAR-8 ovarian
PC-3 prostate = tested on: PC-3 prostate
RPMI-8226 leukemia = tested on: RPMI-8226 leukemia
RXF 393 renal = tested on: RXF 393 renal
SF-268 CNS = tested on: SF-268 CNS
SF-295 CNS = tested on: SF-295 CNS
SF-539 CNS = tested on: SF-539 CNS
SK-MEL-2 melanoma = tested on: SK-MEL-2 melanoma
SK-MEL-28 melanoma = tested on: SK-MEL-28 melanoma
SK-MEL-5 melanoma = tested on: SK-MEL-5 melanoma
SK-OV-3 ovarian = tested on: SK-OV-3 ovarian
SN12C renal = tested on: SN12C renal
SNB-19 CNS = tested on: SNB-19 CNS
SNB-75 CNS = tested on: SNB-75 CNS
SR leukemia = tested on: SR leukemia
SW-620 colon = tested on: SW-620 colon
T-47D breast = tested on: T-47D breast
TK-10 renal = tested on: TK-10 renal
U251 CNS = tested on: U251 CNS
UACC-257 melanoma = tested on: UACC-257 melanoma
UACC-62 melanoma = tested on: UACC-62 melanoma
UO-31 renal = tested on: UO-31 renal
ACHN renal = tested on: ACHN renal
HL-60(TB) leukemia = tested on: HL-60(TB) leukemia
OVCAR-3 ovarian = tested on: OVCAR-3 ovarian

## Cn1c2ccccc2c2c3c(c4c5ccccc5n(C)c4c21)C(=O)NC3=O
786-0 renal
  TGI: 27.5 µM
A498 renal
  TGI: > 44.2 µM
A549 NSCLC
  TGI: > 85.3 µM
BT-549 breast
  TGI: > 100 µM
CAKI-1 renal
  TGI: > 100 µM
CCRF-CEM leukemia
  TGI: > 100 µM
COLO 205 colon
  TGI: > 100 µM
DU-145 prostate
  TGI: > 100 µM
EKVX NSCLC
  TGI: > 100 µM
HCC-2998 colon
  TGI: > 100 µM
HCT-116 colon
  TGI: > 100 µM
HCT-15 colon
  TGI: > 100 µM
HOP-62 NSCLC
  TGI: > 55.8 µM
HOP-92 NSCLC
  TGI: > 100 µM
HS 578T breast
  TGI: > 72.6 µM
HT29 colon
  TGI: > 100 µM
IGROV1 ovarian
  TGI: > 71.8 µM
K-562 leukemia
  TGI: > 100 µM
KM12 colon
  TGI: > 100 µM
LOX IMVI melanoma
  TGI: > 100 µM
M14 melanoma
  TGI: > 100 µM
MALME-3M melanoma
  TGI: > 100 µM
MCF7 breast
  TGI: > 100 µM
MDA-MB-231 breast
  TGI: > 52.7 µM
MDA-MB-435
  TGI: > 100000 nM
MOLT-4 leukemia
  TGI: > 100 µM
NCI-H226 lung
  TGI: > 100 µM
NCI-H23 lung
  TGI: > 100 µM
NCI-H460 lung
  TGI: 70.1 µM
NCI-H522 lung
  TGI: > 86.7 µM
NCI/ADR-RES ovarian
  TGI: > 100 µM
OVCAR-4 ovarian
  TGI: 28.6 µM
OVCAR-5 ovarian
  TGI: > 100 µM
OVCAR-8 ovarian
  TGI: > 100 µM
PC-3 prostate
  TGI: > 77.5 µM
RPMI-8226 leukemia
  TGI: > 100 µM
RXF 393 renal
  TGI: > 22.1 µM
SF-268 CNS
  TGI: > 100 µM
SF-295 CNS
  TGI: > 76.5 µM
SF-539 CNS
  TGI: 35.4 µM
SK-MEL-2 melanoma
  TGI: > 58.3 µM
SK-MEL-28 melanoma
  TGI: > 100 µM
SK-MEL-5 melanoma
  TGI: > 100000 nM
SK-OV-3 ovarian
  TGI: > 100 µM
SN12C renal
  TGI: > 100 µM
SNB-19 CNS
  TGI: 49.6 µM
SNB-75 CNS
  TGI: > 95.7 µM
SR leukemia
  TGI: > 100 µM
SW-620 colon
  TGI: > 100 µM
T-47D breast
  TGI: > 100 µM
TK-10 renal
  TGI: > 100 µM
U251 CNS
  TGI: > 51.5 µM
UACC-257 melanoma
  TGI: > 100 µM
UACC-62 melanoma
  TGI: > 89.6 µM
UO-31 renal
  TGI: > 100 µM

## COc1cc2nc(SCc3cc(OC)c(OC)c(OC)c3)n(Cc3ccccc3)c(=O)c2cc1OC
786-0 renal
  GI50: 5.34 µM
  TGI: 27.3 µM
A498 renal
  GI50: 1620 nM
  TGI: 7.87 µM
A549 NSCLC
  GI50: 3.14 µM
  TGI: > 100 µM
ACHN renal
  GI50: 4.83 µM
  TGI: 24.1 µM
BT-549 breast
  GI50: 3.32 µM
  TGI: 20.7 µM
CAKI-1 renal
  GI50: 3.86 µM
  TGI: > 100 µM
CCRF-CEM leukemia
  GI50: 3000 nM
  TGI: > 100 µM
COLO 205 colon
  GI50: 1740 nM
  TGI: 6.96 µM
DU-145 prostate
  GI50: 5.38 µM
  TGI: > 100 µM
HCC-2998 colon
  GI50: 3.71 µM
  TGI: > 100 µM
HCT-116 colon
  GI50: 2420 nM
  TGI: > 100 µM
HCT-15 colon
  GI50: 1080 nM
  TGI: > 100 µM
HL-60(TB) leukemia
  GI50: 2140 nM
  TGI: > 100 µM
HOP-62 NSCLC
  GI50: 4.48 µM
  TGI: 20.6 µM
HOP-92 NSCLC
  GI50: 1790 nM
  TGI: 8.97 µM
HS 578T breast
  GI50: 2090 nM
  TGI: 21.3 µM
HT29 colon
  GI50: 2760 nM
  TGI: > 100 µM
IGROV1 ovarian
  GI50: 7.82 µM
  TGI: > 70.5 µM
K-562 leukemia
  GI50: 875 nM
  TGI: > 100 µM
KM12 colon
  GI50: 2550 nM
  TGI: > 100 µM
LOX IMVI melanoma
  GI50: 4.35 µM
  TGI: > 100 µM
M14 melanoma
  GI50: 2110 nM
  TGI: > 26.8 µM
MALME-3M melanoma
  GI50: 2830 nM
  TGI: 27 µM
MCF7 breast
  GI50: 742 nM
  TGI: > 100 µM
MDA-MB-231 breast
  GI50: 4.45 µM
  TGI: > 66 µM
MDA-MB-435
  GI50: 375 nM
  TGI: 2040 nM
MOLT-4 leukemia
  GI50: 3.81 µM
  TGI: > 100 µM
NCI-H226 lung
  GI50: 6.85 µM
  TGI: > 100 µM
NCI-H23 lung
  GI50: 6.58 µM
  TGI: > 100 µM
NCI-H460 lung
  GI50: 3.09 µM
  TGI: > 100 µM
NCI-H522 lung
  GI50: 744 nM
  TGI: 5.83 µM
NCI/ADR-RES ovarian
  GI50: 2330 nM
  TGI: 26.6 µM
OVCAR-3 ovarian
  GI50: 2240 nM
  TGI: 8.37 µM
OVCAR-4 ovarian
  GI50: 5.5 µM
  TGI: > 100 µM
OVCAR-5 ovarian
  GI50: 16.3 µM
  TGI: > 100 µM
OVCAR-8 ovarian
  GI50: 6.71 µM
  TGI: > 100 µM
PC-3 prostate
  GI50: 3.27 µM
  TGI: > 100 µM
RPMI-8226 leukemia
  GI50: 2840 nM
  TGI: > 100 µM
RXF 393 renal
  GI50: 1020 nM
  TGI: 10.8 µM
SF-268 CNS
  GI50: 5.28 µM
  TGI: 47.4 µM
SF-295 CNS
  GI50: 2490 nM
  TGI: 11.7 µM
SF-539 CNS
  GI50: 2810 nM
  TGI: 16.2 µM
SK-MEL-2 melanoma
  GI50: 2920 nM
  TGI: 16.8 µM
SK-MEL-28 melanoma
  GI50: 3.88 µM
  TGI: > 100 µM
SK-MEL-5 melanoma
  GI50: 454 nM
  TGI: 2630 nM
SK-OV-3 ovarian
  GI50: 3.18 µM
  TGI: 18.6 µM
SN12C renal
  GI50: 7.65 µM
  TGI: > 100 µM
SNB-19 CNS
  GI50: 5.4 µM
  TGI: 48.2 µM
SNB-75 CNS
  GI50: 876 nM
  TGI: 6.23 µM
SR leukemia
  GI50: 533 nM
  TGI: > 22.2 µM
SW-620 colon
  GI50: 2500 nM
  TGI: > 100 µM
T-47D breast
  GI50: 4.54 µM
  TGI: > 65.9 µM
TK-10 renal
  GI50: 10.8 µM
  TGI: 32.4 µM
U251 CNS
  GI50: 3.64 µM
  TGI: 19.3 µM
UACC-257 melanoma
  GI50: 5.25 µM
  TGI: > 100 µM
UACC-62 melanoma
  GI50: 3.22 µM
  TGI: 50.5 µM
UO-31 renal
  GI50: 3.9 µM
  TGI: > 100 µM
